US11318137B2, “Quinazoline compounds as modulators of Ras signaling” (VANDERBILT UNIVERSITY, priority 2017, dated 2022)

What was measured:
[1] = test system: H727 lung cancer cell lines, which contain a G12V K-Ras mutation; experiment: Inhibition of cancer cell proliferation (CellTiter-Glo, 3 days); assay type: cell-based; conditions: Homo sapiens, NCI-H727, 72 h, H727 cells, 3 days at 37° C., normalized to DMSO control, read-out: Cell proliferation activity (H727 cancer cell line proliferation IC50)
Protocol: C. Inhibition of Cancer Cell Proliferation
Compounds of the present invention were measured for their ability to kill H727 lung cancer cell lines, which contain a G12V K-Ras mutation. Cell proliferation experiments were conducted in 96-well plates. Cells were plated at 1000 cells/well, incubated overnight, followed by treatment with a dose range of compound for 3 days at 37° C. Cell proliferation was assessed using a CellTiter-Glo assay (Promega) according to the manufacturer's protocol. Data were normalized to DMSO control. IC50 values were determined using a four-parameter dose-response (variable slope) equation. These assays are performed in a manner analogous to the assay disclosed in: Burns, M. C.; Sun, Q.; Daniels, R. N.; Camper, D. V.; Kennedy, J. P.; Phan, J.; Olejniczak, E. O.; Lee, T.; Waterson, A. G.; Rossanese, O. W.; Fesik, S. W. “Approach for targeting Ras with small molecules that activate SOS-mediated nucleotide exchange” Proc. Natl. Acad. Sci. 2014; 11(9): 3401-3406. PMCID: PMC3948241.

[2] = biological target: T1, SOS-mediated nucleotide exchange on Ras (Homo sapiens, UniProt Q07889); experiment: SOS-mediated nucleotide exchange on Ras (BODIPY-GDP fluorescence); assay type: biochemical; conditions: Ras loaded with BODIPY-GDP, GTP and SOS added; EC50 from derived exchange rates
T1 sequence (Q07889 1-1333): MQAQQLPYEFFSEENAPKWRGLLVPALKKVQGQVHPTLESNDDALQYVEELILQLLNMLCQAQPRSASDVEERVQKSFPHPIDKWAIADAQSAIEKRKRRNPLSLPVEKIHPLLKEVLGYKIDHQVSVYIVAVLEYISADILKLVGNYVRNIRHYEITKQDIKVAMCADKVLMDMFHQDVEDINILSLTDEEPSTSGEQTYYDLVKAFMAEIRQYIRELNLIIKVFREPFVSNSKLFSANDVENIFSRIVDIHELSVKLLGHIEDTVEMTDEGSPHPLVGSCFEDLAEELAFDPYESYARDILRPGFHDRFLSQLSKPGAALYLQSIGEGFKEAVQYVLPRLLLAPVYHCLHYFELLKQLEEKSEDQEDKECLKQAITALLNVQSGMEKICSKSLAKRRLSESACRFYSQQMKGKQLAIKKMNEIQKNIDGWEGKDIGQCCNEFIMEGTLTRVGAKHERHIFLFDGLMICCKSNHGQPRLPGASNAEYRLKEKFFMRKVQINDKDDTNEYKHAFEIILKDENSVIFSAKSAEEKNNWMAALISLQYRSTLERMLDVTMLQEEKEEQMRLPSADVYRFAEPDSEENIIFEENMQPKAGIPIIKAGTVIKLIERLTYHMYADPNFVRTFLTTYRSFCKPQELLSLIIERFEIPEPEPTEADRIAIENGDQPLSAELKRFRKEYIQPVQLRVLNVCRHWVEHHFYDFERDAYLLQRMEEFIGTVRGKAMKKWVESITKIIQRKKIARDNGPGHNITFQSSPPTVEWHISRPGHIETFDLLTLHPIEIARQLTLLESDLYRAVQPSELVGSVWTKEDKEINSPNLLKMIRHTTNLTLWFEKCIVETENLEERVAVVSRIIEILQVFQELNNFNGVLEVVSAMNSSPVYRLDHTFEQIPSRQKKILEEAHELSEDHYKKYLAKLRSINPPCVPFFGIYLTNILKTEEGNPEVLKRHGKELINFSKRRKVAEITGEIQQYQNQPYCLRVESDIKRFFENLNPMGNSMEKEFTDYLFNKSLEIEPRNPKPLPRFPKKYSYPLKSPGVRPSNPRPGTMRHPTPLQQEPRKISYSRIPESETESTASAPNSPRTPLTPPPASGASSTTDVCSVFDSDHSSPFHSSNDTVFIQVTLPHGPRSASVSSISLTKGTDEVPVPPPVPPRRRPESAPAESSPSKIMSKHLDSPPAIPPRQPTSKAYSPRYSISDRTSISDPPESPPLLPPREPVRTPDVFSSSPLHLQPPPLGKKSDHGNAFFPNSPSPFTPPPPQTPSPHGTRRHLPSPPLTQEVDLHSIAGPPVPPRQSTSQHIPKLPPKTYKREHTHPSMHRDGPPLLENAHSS
How it was run: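 Compound, then GTP and SOS, were added to buffered Ras preloaded with BODIPY-GDP, and the fluorescence change from labeled GDP being exchanged for GTP was followed over time. Rates came from single-exponential fits, and EC50 from a four-parameter fit of mean rate against compound concentration.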

[3] = biological target: T2, Son of Sevenless (SOS) (Homo sapiens, UniProt Q07889); experiment: Binding to SOS, fluorescence polarization anisotropy (FPA) displacement of FITC-conjugated probe; conditions: binding affinity calculated from IC50 of FITC-probe displacement, read-out: Binding affinities (binding affinity to SOS)
T2 sequence (Q07889 564-1049 limits assumed): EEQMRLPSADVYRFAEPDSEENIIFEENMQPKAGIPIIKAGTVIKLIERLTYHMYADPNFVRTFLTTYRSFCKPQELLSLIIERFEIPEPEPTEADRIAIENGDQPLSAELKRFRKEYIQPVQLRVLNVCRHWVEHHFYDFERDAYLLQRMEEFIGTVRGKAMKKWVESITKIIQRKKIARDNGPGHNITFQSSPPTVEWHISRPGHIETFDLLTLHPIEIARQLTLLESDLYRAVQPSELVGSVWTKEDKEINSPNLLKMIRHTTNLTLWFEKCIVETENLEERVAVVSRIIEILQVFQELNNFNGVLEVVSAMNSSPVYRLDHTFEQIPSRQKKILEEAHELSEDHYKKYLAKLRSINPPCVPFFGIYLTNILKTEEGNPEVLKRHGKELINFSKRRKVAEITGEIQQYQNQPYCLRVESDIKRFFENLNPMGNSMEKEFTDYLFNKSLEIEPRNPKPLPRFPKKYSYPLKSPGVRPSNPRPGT
How it was run: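 FITC-labelled probe incubated with SOS in buffer; displacement by test compound across a dose range read as fluorescence anisotropy change. IC50 from four-parameter variable-slope fit, binding affinity calculated from IC50.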

SMILES	IC50 [1]	EC50 [2]	Ki [3]
CC[C@@H](Nc1nc(Nc2ccc(F)c(Cl)c2)nc2c(CN)cccc12)C1CC1 [Example 68, (R)-8-(aminomethyl)-N^2-(3-chloro-4-fluorophenyl)-N^4-(1-cyclopropylpropyl)quinazoline-2,4-diamine]	1 to 5 µM	1 to 5 µM	> 5 µM
C[C@@H](Nc1nc(Oc2ccc(F)c(Cl)c2)nc2c(C3=CCNCC3)cccc12)C1CC1 [Example 69, (R)-2-(3-chloro-4-fluorophenoxy)-N-(1-cyclopropylethyl)-8-(1,2,3,6-tetrahydropyridin-4-yl)quinazolin-4-amine]	1 to 5 µM	> 30 µM	> 5 µM
C[C@@H](Nc1nc(Nc2cc[nH]n2)nc2c(C3=CCNCC3)cccc12)C1CC1 [Example 70, (R)—N^4-(1-cyclopropylethyl)-N^2-(1H-pyrazol-3-yl)-8-(1,2,3,6-tetrahydropyridin-4-yl)quinazoline-2,4-diamine]	5 to 20 µM	> 30 µM	> 5 µM
C[C@@H](Nc1nc(Nc2ccn(C)n2)nc2c(C3=CCNCC3)cccc12)C1CC1 [Example 71, (R)—N^4-(1-cyclopropylethyl)-N^2-(1-methyl-1H-pyrazol-3-yl)-8-(1,2,3,6-tetrahydropyridin-4-yl)quinazoline-2,4-diamine]	1 to 5 µM	5 to 30 µM	> 5 µM
C[C@@H](Nc1nc(NCc2ncco2)nc2c(C3=CCNCC3)cccc12)C1CC1 [Example 72, (R)—N^4-(1-cyclopropylethyl)-N^2-(oxazol-2-ylmethyl)-8-(1,2,3,6-tetrahydropyridin-4-yl)quinazoline-2,4-diamine]	5 to 20 µM	5 to 30 µM	> 5 µM
C1=C(c2cccc3c(NC(C4CC4)C4CC4)nc(NCC4CCCCC4)nc23)CCNC1 [Example 73, N^2-(cyclohexylmethyl)-N^4-(dicyclopropylmethyl)-8-(1,2,3,6-tetrahydropyridin-4-yl)quinazoline-2,4-diamine]	< 1 µM	1 to 5 µM	1 to 5 µM
NCc1cccc2c(NC(C3CC3)C3CC3)nc(NCC3CCCCC3)nc12 [Example 75, 8-(aminomethyl)-N^2-(cyclohexylmethyl)-N^4-(dicyclopropylmethyl)quinazoline-2,4-diamine]	< 1 µM	5 to 30 µM	> 5 µM
C[C@@H](Nc1nc(NCC2CCCCC2)nc2c(C3=CCNCC3)cccc12)C1CC1 [Example 76, (R)—N^2-(cyclohexylmethyl)-N^4-(1-cyclopropylethyl)-8-(1,2,3,6-tetrahydropyridin-4-yl)quinazoline-2,4-diamine]	< 1 µM	1 to 5 µM	1 to 5 µM
C[C@@H](Nc1nc(NCC2CCCCC2)nc2c(CN)cccc12)C1CC1 [Example 78, (R)-8-(aminomethyl)-N^2-(cyclohexylmethyl)-N^4-(1-cyclopropylethyl)quinazoline-2,4-diamine]	5 to 20 µM	1 to 5 µM	> 5 µM
CCC(CC)CNc1nc(Nc2ccc(F)c(Cl)c2)nc2c(C3=CCNCC3)cccc12 [Example 98, N^2-(3-chloro-4-fluorophenyl)-N^4-(2-ethylbutyl)-8-(1,2,3,6-tetrahydropyridin-4-yl)quinazoline-2,4-diamine]	1 to 5 µM	5 to 30 µM	1 to 5 µM
CC[C@@H](Nc1nc(Nc2ccc(F)c(Cl)c2)nc2c(N3CCNCC3)cccc12)c1cccs1 [Example 101, (R)—N^2-(3-chloro-4-fluorophenyl)-8-(piperazin-1-yl)-N^4-(1-(thiophen-2-yl)propyl)quinazoline-2,4-diamine]	1 to 5 µM	5 to 30 µM	> 5 µM
CCC(CC)CNc1nc(Nc2ccc(F)c(Cl)c2)nc2c(N3CCNCC3)cccc12 [Example 102, N^2-(3-chloro-4-fluorophenyl)-N^4-(2-ethylbutyl)-8-(piperazin-1-yl)quinazoline-2,4-diamine]	1 to 5 µM	5 to 30 µM	> 5 µM
CC1CCC(CNc2nc(N[C@H](C)C3CC3)c3cccc(C4=CCNCC4)c3n2)CC1 (stereo partly drawn) [Example 104, (R)—N^4-(1-cyclopropylethyl)-N^2-((4-methylcyclohexyl)methyl)-8-(1,2,3,6-tetrahydropyridin-4-yl)quinazoline-2,4-diamine]	< 1 µM	1 to 5 µM	1 to 5 µM
